{
  "source": "patent US20220280644A1",
  "about": "“\"TRPswitch\" - A STEP FUNCTION CHEMO-OPTOGENETIC LIGAND” (UNIVERSITY OF UTAH RESEARCH FOUNDATION, priority 2019, published 2022)",
  "key": {"[1]": {"test_system": "zebrafish Trpa1a (zTrpa1a)", "test": "Rescue experiment, Trpa1b−/− embryos expressing zTrpa1a in Rohon-beard neurons", "assay_type": "in vivo", "conditions": "20 μM, motion within 5 s after 1 s WL3", "procedure": "For Trpa1b ohnolog and paralog rescue experiments, Trpa1b^−/− embryos were injected with ngn1:zTrpa1b-2A-mCherry (partial plasmid sequence in SEQ ID NO:5), ngn1:zTrpa1a-2A-mCherry, ngn1:hTRPA1-2A-EGFP or ngn1:mTRPA1-2A-mCherry at the 1-cell stage for mosaic Rohon-beard neuron expression. Embryos were screened at 2 dpf for fluorescent expression in Rohon-beard neurons, incubated with 20 μM TRPswitch-B for 1 hr and decapitated posterior to the eyes right before experiments. NA 0.25 5× objective and 1 s WL3 light illumination was used.\nTo test the potential cross activity of TRPswitch-B on the zebrafish ohnolog Trpa1a and on mammalian orthologs, zebrafish Trpa1a, mouse TRPA1 or human TRPA1 were transiently re-expressed in the Rohon-beard neurons of mutant Trpa1b^−/− zebrafish and performed light-induced motion response experiments in the presence of TRPswitch-B. Rescue experiments were performed in Trpa1b^−/− zebrafish with transient mosaic re-expression of zebrafish Trpa1b (zTrpa1b), zebrafish Trpa1a (zTrpa1a), mouse TRPA1 (mTRPA1) or human TRPA1 (hTRAP1) in Rohon-beard neurons. Embryos were pre-treated with 20 μM TRPswitch-B and decapitated right before light stimulation to eliminate the light response mediated by the retina (Table 5). […]"}, "zebrafish Trpa1b": {"test_system": "zebrafish Trpa1b", "test": "Whole cell current in CCD-18Co cells transfected with zebrafish Trpa1b", "assay_type": "cell-based", "conditions": "CCD-18Co transfected with zTrpa1b", "procedure": "(§1) Immortalized HEK293T cells or human colonic fibroblast cells (CCD-18Co; ATCC) were used. HEK293T cells were plated on […] cover slips and transiently transfected with 10 μg of Trpa1b plasmid (pCMV-zTrpa1b-FLAG) (SEQ ID NO:3) and 5 μg of mNeonGreen cDNA (Allele Biotechnology), then grown in a 6 cm plate for 24-48 h. CCD-18Co were cultured in Eagle's minimal essential medium with 10% FBS, 1× penicillin and streptomycin. CCD-18Co cells were plated on 12 mm cover slips and transiently transfected with 5 μg of zTrpa1b plasmid (pCMV-zTrpa1b-FLAG) together with 5 μg of mNeonGreen cDNA (Allele Biotechnology), then grown in a […] plate for 48-72 h. After this time, the cover slips were transferred to a recording chamber containing an extracellular solution composed of 145 mM sodium gluconate, 4 mM KCl, 3 mM MgCl2, 10 mM D-glucose, 10 mM HEPES; pH 7.4 adjusted with NaOH. The internal solution contained 122 mM cesium methane sulfonate, 1.8 mM MgCl2, 9 mM EGTA, 14 mM creatine phosphate (sodium salt), 4 mM Mg-ATP, 0.3 mM Na-GTP, 10 mM HEPES, pH 7.2 adjusted with CsOH. […] Whole cell currents were measured on an Axopatch 200B amplifier (Molecular De-vices) under the control of pClamp software. […] Basal Trpa1b whole cell currents were measured with a ramp protocol (˜100 to +100 mV, at a holding potential of 0 mV). […] The p values were calculated using a two-tailed, paired Student's t-test."}, "[2]": {"test_system": "wild-type zebrafish larvae", "test": "Behavioral assay: light-induced motion response of wild-type larvae", "assay_type": "in vivo, Zebrafish (Danio rerio)", "procedure": "A total of 1,000 compounds were selected from the ChemBridge Corp. catalog. Compounds were dissolved in DMSO at a stock concentration of 1 μg/μL (˜1.5 mM). The library was screened at a 1:100 dilution in E3 solution for a final concentration of ˜15 μM. Negative controls were treated with an equal volume of DMSO. Groups of 3 larvae at 3 days post fertilization (dpf) were distributed into the wells of 96-well clear bottom black microplates (07-200-567; Fisher Scientific) in 150 μL E3 before the addition of small molecules. Stock solutions of compounds were added directly to zebrafish in the wells of a 96 well plate (Corning 3631), mixed, and allowed to incubate for 1 h in the dark at 28.5° C. prior to behavioral evaluation in the behavioral assay. Ordering information: 1 (5533696; ChemBridge); 3 (5538408; ChemBridge).\nLarvae in each of the wells were exposed to four 1 second flashes of light stimulus in the following order: 450-500 nm (WL1), 415-455 nm (WL2), 352-402 nm (WL3), white light (WL4), with a 5 second inter-stimulus interval. Digital video recording was performed for 5 seconds before the first light stimuli and continued throughout the stimulation sequence. Band pass filters (Semrock FF02-475/50, FF02-435/40, FF01-377/50) were used to restrict the excitation light to the indicated wavelengths. […] 290 frames of digital video were recorded per well at 10 FPS using an EMCCD camera (C9100; Hamamatsu) mounted on an inverted compound microscope (AxioObserver A1; Zeiss) with a NA 0.03 1.25× objective and a barrier with a 0.7 mm diameter opening to restrict light scattering to the sample. MetaMorph software (Molecular Devices) was used to control the execution of TTL signals and camera capture using the built-in stream acquisition with trigger function. Each video was saved for review. Light stimuli were generated with an ozone free 300-Watt xenon bulb housed in a Lambda LS illuminator (Sutter Instruments). A dichroic mirror (T510LPXRXT; Chroma) was used for appropriate excitation of samples and bright field acquisition. Schott longpass absorption glass (RG610; Chroma) was added in the transmitted light path to reduce unwanted excitation to the well and to provide sufficient light for video recording. All behavioral experiments were conducted at room temperature. […]\nTo analyze digital video recordings, custom MetaMorph software scripts were used to automatically threshold the video to identify the area of larvae in each frame. Threshold images of the frames after each light activation event were overlaid to calculate a new combined threshold area. The motion index was calculated as the percentage change between the threshold area in the frame right before light activation and the new combined threshold area. This motion index correlates with the overall amount of motion in the well."}, "endogenous human TRPA1": {"biological_target": "T1, endogenous human TRPA1 (Homo sapiens, UniProt O75762)", "T1 construct": "human colonic fibroblast cells, CCD-18Co, which express human TRPA1 endogenously; endogenous in cells; host or cells: CCD-18Co (ATCC), untransfected", "T1 sequence (O75762 whole entry)": "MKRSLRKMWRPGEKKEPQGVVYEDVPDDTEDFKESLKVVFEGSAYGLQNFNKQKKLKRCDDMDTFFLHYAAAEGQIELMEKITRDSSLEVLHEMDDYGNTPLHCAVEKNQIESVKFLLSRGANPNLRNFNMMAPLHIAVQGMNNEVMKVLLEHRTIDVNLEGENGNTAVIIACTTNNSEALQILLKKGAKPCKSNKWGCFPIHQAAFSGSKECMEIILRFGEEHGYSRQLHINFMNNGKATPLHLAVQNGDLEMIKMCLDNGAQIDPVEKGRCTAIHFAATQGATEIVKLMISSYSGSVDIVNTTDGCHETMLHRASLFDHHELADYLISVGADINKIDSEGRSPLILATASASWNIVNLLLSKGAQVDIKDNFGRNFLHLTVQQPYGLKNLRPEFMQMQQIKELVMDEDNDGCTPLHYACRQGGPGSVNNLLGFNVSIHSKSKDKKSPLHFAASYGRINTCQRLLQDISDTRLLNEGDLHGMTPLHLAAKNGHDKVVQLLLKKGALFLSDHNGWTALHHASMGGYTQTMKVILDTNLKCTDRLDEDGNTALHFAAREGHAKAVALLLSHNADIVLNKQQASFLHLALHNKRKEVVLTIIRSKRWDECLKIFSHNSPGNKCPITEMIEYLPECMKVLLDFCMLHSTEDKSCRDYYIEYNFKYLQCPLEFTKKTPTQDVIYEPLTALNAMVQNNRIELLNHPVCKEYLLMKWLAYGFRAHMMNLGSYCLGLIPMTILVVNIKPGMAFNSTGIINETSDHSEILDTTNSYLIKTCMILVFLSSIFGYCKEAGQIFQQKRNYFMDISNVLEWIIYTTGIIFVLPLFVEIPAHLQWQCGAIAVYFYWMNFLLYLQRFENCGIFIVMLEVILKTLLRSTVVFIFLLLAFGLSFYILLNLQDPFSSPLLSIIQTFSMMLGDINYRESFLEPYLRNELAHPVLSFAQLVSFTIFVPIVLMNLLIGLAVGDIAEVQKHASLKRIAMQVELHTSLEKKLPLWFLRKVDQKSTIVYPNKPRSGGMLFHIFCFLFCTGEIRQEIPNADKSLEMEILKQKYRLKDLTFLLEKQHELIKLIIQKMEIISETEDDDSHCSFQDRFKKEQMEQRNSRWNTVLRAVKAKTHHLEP", "test": "Whole cell current in untransfected CCD-18Co cells", "assay_type": "cell-based", "conditions": "without expression of zTrpa1b, violet and green light", "procedure": "as §1"}},
  "data": [
    {"smiles": "Cc1nn(C)c(C)c1/N=N/c1ccc(NC(=O)c2cccs2)cc1NC(=O)c1cccs1", "note": "[Compound 9, (E)-N,N′-(4-((1,3,5-trimethyl-1H-pyrazol-4-yl)diazenyl)-1,3-phenylene)bis(thiophene-2-carboxamide)]", "values": [
      {"measurement": "% response", "setting": "[1]", "value": 0, "unit": "%"},
      {"measurement": "photocurrent on green light", "setting": "zebrafish Trpa1b", "value": "green light-induced decrease in photocurrent"},
      {"measurement": "photocurrent on violet light", "setting": "zebrafish Trpa1b", "value": "violet light-induced photocurrent"},
      {"measurement": "light-induced motion response (in vivo activity)", "setting": "[2]; 3 dpf wild-type larvae, 1 s flashes WL1-WL4", "value": "comparable biological response to TRPswitch-A"},
      {"measurement": "effect of DABCO on light-induced motion response", "setting": "[2]; DABCO, singlet oxygen quencher", "value": "no effect"},
      {"measurement": "light induced photocurrent / cross reaction with endogenous human TRPA1", "setting": "endogenous human TRPA1", "value": "does not cross react"}
    ]}
  ]
}
